# From patent publication US8481732B2 (Incyte Corporation, priority 2009, dated 2013)
# Biological target: T1, histamine H4 receptor (Homo sapiens, UniProt Q9H3N8)
# T1 construct: expressed in transfected cells; host or cells: HEK293SFM cells (membrane preparation)
# Assay: H4 Membrane Binding Assay (3H-Histamine displacement)
# Details: membranes of recombinant HEK293SFM cells, 10 nM 3H-Histamine, 1.5 hr at room temperature
# How it was run: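 Radioligand is [3H]-histamine; 1000× unlabeled ligand sets nonspecific binding. Receptor source: membrane pellets from HEK293SFM cells carrying human H4 or other histamine subtypes (human H1–H3, mouse H4), in 50 mM Tris-HCl pH 7.5. Filtration through PEI-treated GF/B filters, then scintillation counting.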
row,Compound,IC50 [nM]
1,"CN1CCN(c2nc(N)nc3cc(C(=O)NCCCc4ccccc4)ccc23)CC1 [Example 38, 2-Amino-4-(4-methylpiperazin-1-yl)-N-(3-phenylpropyl)quinazoline-7-carboxamide]",106
2,"COc1ccc(NC(=O)N2CCc3ccc(-c4cc(N5CCN(C)CC5)nc(N)n4)cc3C2)cn1 [Example 46, 7-[2-Amino-6-(4-methylpiperazin-1-yl)pyrimidin-4-yl]-N-(6-methoxypyridin-3-yl)-3,4-dihydroisoquinoline-2(1H)-carboxamide]",70
3,"CO[C@@H]1Cc2ccccc2[C@@H]1NC(=O)N1CCc2ccc(-c3cc(N4CCN(C)CC4)nc(N)n3)cc2C1 [Example 57, 7-[2-Amino-6-(4-methylpiperazin-1-yl)pyrimidin-4-yl]-N-[(1S,2R)-2-methoxy-2,3-dihydro-1H-inden-1-yl]-3,4-dihydroisoquinoline-2(1H)-carboxamide]",93
4,"CN1CCN(c2nc(N)nc3cc(C(=O)N[C@@H](Cc4ccc(-c5nc(C(F)(F)F)ccc5C#N)cc4)C(=O)N(C)C)ccc23)CC1 [Example 157, 2-Amino-N-[(1S)-1-{4-[3-cyano-6-(trifluoromethyl)pyridin-2-yl]benzyl}-2-(dimethylamino)-2-oxoethyl]-4-(4-methylpiperazin-1-yl)quinazoline-7-carboxamide]",22
5,"Cc1cccc(Oc2cccc(CNC(=O)c3ccc4c(N5CCN(C)CC5)nc(N)nc4c3)c2)c1C#N [Example 189, 2-Amino-N-[3-(2-cyano-3-methylphenoxy)benzyl]-4-(4-methylpiperazin-1-yl)quinazoline-7-carboxamide]",6.6
6,"Cc1ccc(CNC(=O)c2ccc3c(N4CCN(C)CC4)nc(N)nc3c2)cc1Cl [Example 36, 2-Amino-N-(3-chloro-4-methylbenzyl)-4-(4-methylpiperazin-1-yl)quinazoline-7-carboxamide]",126
7,"CN1CCN(c2nc(N)nc3cc(C(=O)Nc4cccc(Cl)c4)ccc23)CC1 [Example 27, 2-Amino-N-(3-chlorophenyl)-4-(4-methylpiperazin-1-yl)quinazoline-7-carboxamide]",896
8,"CN1CCN(c2cc(-c3ccc4c(c3)CN(C(=O)CC3CC3)CC4)nc(N)n2)CC1 [Example 106, 4-[2-(Cyclopropylacetyl)-1,2,3,4-tetrahydroisoquinolin-7-yl]-6-(4-methylpiperazin-1-yl)pyrimidin-2-amine]",69

# The remaining lines, values ahead:
row,IC50 [nM],Compound
1,23,"CN1CCN(c2nc(N)nc3cc(C(=O)NC(Cc4cccc(Oc5cccc(C#N)c5)c4)C(=O)N(C)C)ccc23)CC1 (stereo not shown) [Example 174, 2-Amino-N-(3-(3-(3-cyanophenoxy)phenyl)-1-(dimethylamino)-1-oxopropan-2-yl)-4-(4-methylpiperazin-1-yl)quinazoline-7-carboxamide]"
2,57.2,"CC(C)NC(=O)N1CCc2ccc(-c3cc(N4CCN(C)CC4)nc(N)n3)cc2C1 [Example 13, 7-[2-Amino-6-(4-methylpiperazin-1-yl)pyrimidin-4-yl]-N-isopropyl-3,4-dihydroisoquinoline-2(1H)-carboxamide]"
3,7.1,"COC(=O)c1cccc(COc2cccc(C(C)NC(=O)c3ccc4c(N5CCN(C)CC5)nc(N)nc4c3)c2)c1 (stereo not shown) [Example 200, Methyl 3-({3-[1-({[2-amino-4-(4-methylpiperazin-1-yl)quinazolin-7-yl]carbonyl}amino)ethyl]phenoxy}methyl)benzoate]"
4,7.9,"CCOC(=O)c1cc(C)nc(Oc2cccc(CNC(=O)c3ccc4c(N5CCN(C)CC5)nc(N)nc4c3)c2)c1C#N [Example 186, Ethyl 2-{3-[({[2-amino-4-(4-methylpiperazin-1-yl)quinazolin-7-yl]carbonyl}amino)methyl]phenoxy}-3-cyano-6-methylisonicotinate]"
5,58,"CN1CCN(c2cc(-c3ccc4c(c3)CN(C(=O)Nc3ccc(C#N)cn3)CC4)nc(N)n2)CC1 [Example 43, 7-[2-Amino-6-(4-methylpiperazin-1-yl)pyrimidin-4-yl]-N-(5-cyanopyridin-2-yl)-3,4-dihydroisoquinoline-2(1H)-carboxamide]"
